Test results reported in patent publication US10183024B2, “Crystalline forms of ibrutinib” (Apotex Inc., priority 2016, dated 2019).

Experiments:
[1] = PXRD study of crystal form stability on storage in stability chambers; assay type: physicochemical
Experimental: Ibrutinib Form APO-I can be characterized by a PXRD diffractogram comprising, among other peaks, characteristic peaks, expressed in degrees 2θ (±0.2°), at 5.1°, 7.6° and 12.5°. Preferably, the PXRD diffractogram further comprises at least three peaks, expressed in degrees 2θ (±0.2°), selected from the group consisting of: 10.1°, 11.1°, 14.2°, 15.4°, 16.3°, 17.3° and 18.7°. More preferably, the PXRD diffractogram further comprises peaks, expressed in degrees 2θ (±0.2°), at 10.1°, 11.1°, 14.2°, 15.4°, 16.3°, 17.3° and 18.7°. PXRD studies of capped and uncapped samples of Ibrutinib Form APO-I have shown that this crystal form is stable following storage in stability chambers maintained at 27° C./60% RH for at least 31 days and 40° C./75% RH for at least 21 days.
Ibrutinib Form APO-II can be characterized by a PXRD diffractogram comprising, among other peaks, characteristic peaks, expressed in degrees 2θ (±0.2°), at 6.4°, 10.1° and 12.8°. Preferably, the PXRD diffractogram further comprises at least three peaks, expressed in degrees 2θ (±0.2°), selected from the group consisting of: 13.8°, 17.6°, 18.4°, 19.4°, 20.4°, 21.0°, 21.7°, 23.2°, 24.1° and 24.9°. More preferably, the PXRD diffractogram further comprises peaks, expressed in degrees 2θ (±0.2°), at 13.8°, 17.6°, 18.4°, 19.4°, 20.4°, 21.0°, 21.7°, 23.2°, 24.1° and 24.9°. PXRD studies of capped and uncapped samples of Ibrutinib Form APO-II have shown that this crystal form is stable following storage in stability chambers maintained at 27° C./60% RH and 40° C./75% RH for at least 25 days.
Ibrutinib Form APO-IV can be characterized by a PXRD diffractogram comprising, among other peaks, characteristic peaks, expressed in degrees 2θ (±0.2°), at 6.4°, 10.2° and 12.9°. Preferably, the PXRD diffractogram further comprises at least three peaks, expressed in degrees 2θ (±0.2°), selected from the group consisting of: 13.9°, 17.7°, 18.4°, 19.4°, 20.5°, 21.3°, 21.8°, 23.2°, 24.2° and 24.9°. More preferably, the PXRD diffractogram further comprises peaks, expressed in degrees 2θ (±0.2°), at 13.9°, 17.7°, 18.4°, 19.4°, 20.5°, 21.3°, 21.8°, 23.2°, 24.2° and 24.9°. PXRD studies of uncapped samples of Ibrutinib Form APO-IV have shown that this crystal form is stable following storage in a stability chambers maintained at 40° C./75% RH for at least 11 months.
Data were acquired on a PANanalytical X-Pert Pro MPD diffractometer with fixed divergence slits and an X'Celerator RTMS detector. The diffractometer was configured in Bragg-Brentano geometry; data was collected over a 2-theta range of 3° to 40° using CuKα radiation at a power of 40 mA and 45 kV. CuKβ radiation was removed using a divergent beam nickel filter. A step size of 0.017° was used. Samples were rotated to reduce preferred orientation effects. Samples were lightly ground prior to analysis.

[2] = cited from earlier work
[3] = 27° C./60% RH, capped and uncapped samples
[4] = 40° C./75% RH, capped and uncapped samples

| SMILES | crystal form stable following storage (PXRD) [1, 3] | crystal form stable following storage (PXRD) [1, 4] | other results |
| --- | --- | --- | --- |
| C=CC(=O)N1CCCC(n2nc(-c3ccc(Oc4ccccc4)cc3)c3c(N)ncnc32)C1 (stereo not shown) [Form APO-II] | at least 25 days | at least 25 days |  |
| C=CC(=O)N1CCCC(n2nc(-c3ccc(Oc4ccccc4)cc3)c3c(N)ncnc32)C1 (stereo not shown) [Form APO-IV] |  |  | crystal form stable following storage (PXRD) ([1]; 40° C./75% RH, uncapped samples): at least 11 months |
| C=CC(=O)N1CCCC(n2nc(-c3ccc(Oc4ccccc4)cc3)c3c(N)ncnc32)C1 (stereo not shown) [Form APO-I] | at least 31 days | at least 21 days |  |
| C=CC(=O)N1CCCC(n2nc(-c3ccc(Oc4ccccc4)cc3)c3c(N)ncnc32)C1 (stereo not shown) [Form A] |  |  | solubility ([2]; drug substance in IMBRUVICA, per AusPAR): pH dependent solubility |
| C=CC(=O)N1CCCC(n2nc(-c3ccc(Oc4ccccc4)cc3)c3c(N)ncnc32)C1 (stereo not shown) [Form B] |  |  | aqueous solubility ([2]; reported for other anhydrous forms): low aqueous solubility |
